Converted amounts (≈) assume the structure as drawn. Read-outs that look alike come from different tables or passages of the source.

These results are taken from patent US20060240505A1, “Identification of Targets of Antimicrobial Compounds” (priority 2000, published 2006).

Assay [1] concerns RN4220/pYH4. Description: MIC against S. aureus RN4220 carrying empty expression vector pYH4 (control), with and without inducer. The class given is cell-based. Here is the method: (§1) The pYH4 expression vector was used to clone the FabI ORF and it served as a control for the experiment.
(§2) The murA1 ORF is cloned into the pYH4 expression vector, the features of which are described above, and the anhydrotetracycline inducer is added to a sample containing the murA1 ORF. In addition, a control sample containing only the vector is induced and the MICs of the induced and uninduced vector are determined. […] This confirms that murA1 is a target of phosphomycin.
The metRS ORF is cloned into the pYH4 expression vector, the features of which are described above, and the anhydrotetracycline inducer is added to a sample containing the metRS ORF. The MICs for the anitmicrobial compound of induced and uninduced samples are determined. In addition, a control sample containing only the vector is induced and the MICs of the induced and uninduced vector are determined. […] This confirms that metRS is a target of the exemplified antimicrobial compound.

Assay [2] relates to RN4220/pYH4-fabI. Description: MIC of triclosan against S. aureus RN4220 carrying the fabI ORF clone, with and without inducer. The class given is cell-based. The following applies: Staphylococcus aureus, strain RN4220/pYH4-fabI, read-out: MIC concentration of triclosan necessary to inhibit the strain.
From the text: This confirms that FabI is a target of triclosan.
as §1

Assay [3] concerns RN4220/pYH4 and RN4220/pYH4-fabI mixed in the ratio of 100:1. Description: Selection of triclosan resistant colonies on TSA plates from a mixed culture. The class given is cell-based, S. aureus. The following applies: approximately 1,000 bacterial cells plated. Here is the method: In the experiment, a S. aureus strain with expression vector (RN4220/pYH4) was combined with the expression vector and FabI open reading frame (RN4220/pYH4-fabI) in the ratio of 100:1. Then, approximately 1,000 bacterial cells of this mixture were plated onto TSA plates containing: (1) no triclosan (-triclosan); (2) 0.25 μg/ml of triclosan; and (3) 0.25 μg/ml of triclosan plus 0.4 μg/ml anhydrotetracycline inducer. […] The third plate was indicative of FabI-containing clones which are confirmed to be targets of the triclosan antimicrobial compound.

Assay [4] has as its system RN4220/pYH4MurA1. Description: MIC of phosphomycin against S. aureus RN4220 carrying the murA1 ORF clone, with and without inducer. Type of assay: cell-based. How it is done: as §2

For `Oc1cc(Cl)ccc1Oc1ccc(Cl)cc1Cl` [triclosan], the MIC was 0.0625 µg/mL (≈ 0.216 µM) in assay [1] (Staphylococcus aureus, strain RN4220/pYH4, −inducer, read-out: MIC concentration of triclosan necessary to inhibit the strain); 1 µg/mL in assay [2] (+inducer); 0.0625 µg/mL in assay [2] (−inducer). Further, in assay [1] (strain RN4220/pYH4, +inducer), the “MIC concentration of triclosan necessary to inhibit the strain” value was 0.0625 µg/mL. Moreover, the “colonies grown on TSA plate” value is listed as 15 colonies in assay [3] (0.25 μg/ml triclosan plus 0.4 μg/ml anhydrotetracycline inducer) and “no colonies grew” in assay [3] (0.25 μg/ml triclosan, no inducer).
On to `C[C@@H]1O[C@@H]1P(=O)(O)O` [phosphomycin], for which the MIC of phosphomycin in assay [1] (strain RN4220/pYH4, +ATc) was determined as 2 µg/mL; in assay [1] (strain RN4220/pYH4, −Atc), 4 µg/mL; in assay [4] (strain RN4220/pYH4MurA1, +ATc), 256 µg/mL; in assay [4] (strain RN4220/pYH4MurA1, −Atc), 32 µg/mL. The “MIC of the induced murA1 gene relative to the uninduced vector alone” value in assay [4] (induced murA1 clone vs uninduced vector) came out at 64 fold. For the same compound, the “MIC of the uninduced murA1 gene relative to the uninduced vector alone” value in assay [4] (uninduced murA1 clone vs uninduced vector) is reported as 8 fold.
